Assay results from ChEMBL document CHEMBL1201862, “PubChem BioAssay data set” (2004).
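Results reflect a 48-hour exposure of cells in 96-well plates to compound at five concentrations. The concentration for 50% growth inhibition is given as GI50.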 Activity calls are given as the source filed them. Rule as the data show it: active = GI50 up to about 1.1 µM and inactive = higher.

How the values were obtained:
Experiment in all cases: NCI tumour cell line growth inhibition, 48 h
ACHN = system: ACHN
BT-549 = system: BT-549
HCC 2998 = system: HCC 2998
HCT-116 = system: HCT-116
HOP-92 = system: HOP-92
IGROV-1 = system: IGROV-1
K562 = system: K562
LOX IMVI = system: LOX IMVI
Malme-3M = system: Malme-3M
NCI-H226 = system: NCI-H226
NCI-H23 = system: NCI-H23
OVCAR-4 = system: OVCAR-4
OVCAR-8 = system: OVCAR-8
SF-295 = system: SF-295
SK-MEL-2 = system: SK-MEL-2
UACC-257 = system: UACC-257
CCRF-CEM = system: CCRF-CEM
DU-145 = system: DU-145
HL-60 = system: HL-60

Measured: GI50

N#CC(CC(=O)O)=C(c1ccccc1)c1ccccc1
inactive: ACHN > 100 µM | BT-549 > 100 µM | HCC 2998 > 100 µM | HCT-116 > 100 µM | HOP-92 > 100 µM | IGROV-1 > 100 µM | K562 > 100 µM | LOX IMVI > 100 µM | Malme-3M > 100 µM | NCI-H226 > 100 µM | NCI-H23 > 100 µM | OVCAR-4 > 100 µM | OVCAR-8 > 100 µM | SF-295 > 100 µM | SK-MEL-2 > 100 µM | UACC-257 > 100 µM

O=C(O)CCC(NC(=O)c1ccc(CNc2nc3ccccc3nc2C(=O)O)cc1)C(=O)O (stereo not drawn)
inactive: ACHN > 100 µM | CCRF-CEM > 100 µM | DU-145 > 100 µM | HCT-116 > 100 µM | IGROV-1 > 100 µM | K562 > 100 µM | LOX IMVI > 100 µM | Malme-3M > 100 µM | NCI-H226 > 100 µM | NCI-H23 > 100 µM | OVCAR-4 > 100 µM | OVCAR-8 > 100 µM | SF-295 > 100 µM | SK-MEL-2 > 100 µM | UACC-257 > 100 µM

O=C(Nc1ccc([N+](=O)[O-])cc1)C1C(=O)C(=O)N(c2ccc([N+](=O)[O-])cc2)C1=O (stereo not drawn)
inactive: ACHN 32.8 µM | CCRF-CEM > 100 µM | HCC 2998 > 100 µM | HCT-116 80.2 µM | HL-60 > 100 µM | HOP-92 > 100 µM | IGROV-1 > 100 µM | K562 8.07 µM | LOX IMVI 16.1 µM | Malme-3M > 100 µM | NCI-H226 > 100 µM | NCI-H23 > 100 µM | OVCAR-8 > 100 µM | SF-295 80.2 µM | SK-MEL-2 > 100 µM | UACC-257 > 100 µM

CCCCN(CCCC)CC(O)c1cc(-c2ccc(C(F)(F)F)cc2)nc(-c2ccc(C(F)(F)F)cc2)c1 (stereo not drawn)
inactive: ACHN > 100 µM | CCRF-CEM 50.9 µM | DU-145 > 100 µM | HCC 2998 22.6 µM | HCT-116 61.8 µM | HL-60 32 µM | HOP-92 61.5 µM | IGROV-1 > 100 µM | K562 76.2 µM | LOX IMVI 35 µM | Malme-3M 44 µM | NCI-H23 > 100 µM | OVCAR-4 > 100 µM | OVCAR-8 > 100 µM | SF-295 26.7 µM | SK-MEL-2 > 100 µM | UACC-257 49.3 µM

Cc1cc2c(c(C(=O)NCC(=O)N[C@@H](C)C(=O)OCc3ccccc3)c1)Oc1c(cc(C)cc1C(=O)NCC(=O)N[C@@H](C)C(=O)OCc1ccccc1)S2
inactive: ACHN > 100 µM | BT-549 > 100 µM | CCRF-CEM > 100 µM | DU-145 > 100 µM | HCC 2998 34.7 µM | HCT-116 > 100 µM | IGROV-1 99.1 µM | K562 23 µM | Malme-3M 16.1 µM | NCI-H226 > 100 µM | NCI-H23 > 100 µM | OVCAR-4 > 100 µM | OVCAR-8 > 100 µM | SF-295 > 100 µM | SK-MEL-2 24.9 µM | UACC-257 > 100 µM

CCn1c(SCC(=O)NNC(=S)NC)nc2ccccc2c1=O
inactive: ACHN > 100 µM | BT-549 68.1 µM | CCRF-CEM > 100 µM | DU-145 > 100 µM | HCC 2998 > 100 µM | HCT-116 > 100 µM | HL-60 > 100 µM | IGROV-1 > 100 µM | K562 > 100 µM | LOX IMVI > 100 µM | Malme-3M > 100 µM | NCI-H226 > 100 µM | NCI-H23 > 100 µM | OVCAR-4 76.4 µM | OVCAR-8 > 100 µM | SF-295 > 100 µM | SK-MEL-2 > 100 µM | UACC-257 > 100 µM

CCOC(=O)c1c(-c2ccc(OC)c(O)c2)c(C#N)c(=S)n(C2OC(CO)C(O)C(O)C2O)c1-c1ccccc1 (stereo not drawn)
inactive: ACHN > 100 µM | CCRF-CEM > 100 µM | DU-145 > 100 µM | HCC 2998 > 100 µM | HCT-116 > 100 µM | IGROV-1 > 100 µM | K562 > 100 µM | LOX IMVI > 100 µM | NCI-H226 > 100 µM | NCI-H23 > 100 µM | OVCAR-4 > 100 µM | SF-295 > 100 µM | UACC-257 > 100 µM

COc1ccc(-c2cc(-c3ccc(Nc4ccnc5cc(Cl)ccc45)cc3)nc(N)c2C#N)c2ccccc12
inactive: ACHN > 100 µM | BT-549 > 100 µM | CCRF-CEM > 100 µM | DU-145 > 100 µM | HCC 2998 > 100 µM | HCT-116 > 100 µM | IGROV-1 > 100 µM | K562 > 100 µM | LOX IMVI > 100 µM | Malme-3M > 100 µM | NCI-H226 > 100 µM | NCI-H23 > 100 µM | OVCAR-4 > 100 µM | OVCAR-8 > 100 µM | SF-295 > 100 µM | SK-MEL-2 > 100 µM | UACC-257 > 100 µM
